Patent publication US9513294B2, “Megastokes amino-triazolyl-BODIPY compounds and applications to live neuron staining and human serum albumin FA1 drug site probing” (National University of Singapore, priority 2012, dated 2016)
One block for each molecule: values may come before it.

What was measured:
[1] = Absorbance and fluorescence emission spectra (SpectraMax M2); format: physicochemical; details: for λmax Abs. (nm) / λmax Em. (nm): MKAC compound library; for λmax Abs. (nm) / λmax Absorp. (nm): absorbance maximum; for λmax Em. (nm) / λmax Emission (nm): fluorescence emission maximum; for λmax Absorp. (nm) / λmax Emission (nm): MKCA compound library
Protocol: BDC-8 (Blue): absorbance λmax=473 nm, emission λmax=585 nm; MK101-8 (Green): absorbance λmax=474 nm, emission λmax=563 nm; MKHA374-48 (Yellow): absorbance λmax=468 nm, λem=557 nm. The corresponding spectra of a reported BODIPY (BD-27; Red) are also included for comparison: absorbance λmax=551 nm, emission λmax=568 nm. The structures of BDC-8, MK101-8, MKHA374-48 and BD-27 are also depicted.
(§1) ^1H-NMR, ^19F-NMR and ^13C-NMR spectra were recorded on Bruker ACF300 (300 MHz), DPX300 (300 MHz) and AMX500 (500 MHz) spectrometers. High resolution mass spectra (ESI) were obtained on a Finnigan/MAT 95XL-T spectrometer. Spectroscopic and quantum yield data were measured on a SpectraMax M2 spectrophotometer (Molecular Devices). Data analysis was performed using GraphPrism 5.0. Analytical characterization was performed on a HPLC-MS (Agilent-1200 series) with a DAD detector and a single quadrupole mass spectrometer (6130 series) with an ESI probe. Analytical HPLC method: eluents, A: H2O (0.1% HCOOH), B: CH3CN (0.1% HCOOH), gradient 5% B to 95% B (10 min). Reverse-phase Phenomenex C18 Luna column (4.6×50 mm^2, 3.5 […]), flow rate: 1 mL/min.

[2] = Quantum yield measurements versus Acridine Yellow in EtOH; format: physicochemical; details: for φ (quantum yield): excitation 460 nm; for φ (%): quantum yield
Protocol: as §1
Quantum yields were calculated by measuring the integrated emission area of the fluorescent spectra and comparing to the area measured for Acridine Yellow in EtOH when excited at 460 nm (Φfluorescence^AcridineYellow=0.47). Quantum yields for the amino-triazolyl-BODIPYs were calculated using the equation below, where F represents the area of fluorescent emission, η is the refractive index of the solvent, and Abs is absorbance at the excitation wavelength selected for standards and samples. Emission was integrated between 510 and 700 nm.

- λmax Absorp. ([1]; BDCCA library, Table 4): 465 nm
- λmax Emission ([1]; BDCCA library, Table 4): 584 nm
- φ (quantum yield) ([2]; BDCCA library, Table 4): 0.6%
Compound: O=C(CCl)Nc1ccc(C2=C3C=CC(N4CCCCC4)=[N+]3[B-](F)(F)n3c2ccc3-n2cc(CO)nn2)cc1 [BDCCA-70]

- λmax Absorp. ([1]; BDCAC library, Table 3): 465 nm
- λmax Emission ([1]; BDCAC library, Table 3): 588 nm
- φ (quantum yield) ([2]; BDCAC library, Table 3): 0.8%
Compound: CC(=O)Nc1ccc(C2=C3C=CC(N4CCCCC4)=[N+]3[B-](F)(F)n3c2ccc3-n2cc(CN(C)Cc3ccccc3)nn2)cc1 [BDCAC-18]

- λmax Absorp. ([1]; BDCAC library, Table 3): 459 nm
- λmax Emission ([1]; BDCAC library, Table 3): 549 nm
- φ (quantum yield) ([2]; BDCAC library, Table 3): 3.5%
Compound: CC(=O)Nc1ccc(C2=C3C=CC(N4CCCCC4)=[N+]3[B-](F)(F)n3c2ccc3-n2cc(-c3cc(C(F)(F)F)cc(C(F)(F)F)c3)nn2)cc1 [BDCAC-30]

- λmax Absorp. ([1]; BDCAC library, Table 3): 464 nm
- λmax Emission ([1]; BDCAC library, Table 3): 588 nm
- φ (quantum yield) ([2]; BDCAC library, Table 3): 1.0%
Compound: COc1cc(OC)cc(-c2cn(-c3ccc4n3[B-](F)(F)[N+]3=C(N5CCCCC5)C=CC3=C4c3ccc(NC(C)=O)cc3)nn2)c1 [BDCAC-14]

- λmax Absorp. ([1]; BDCAC library, Table 3): 467 nm
- λmax Emission ([1]; BDCAC library, Table 3): 562 nm
- φ (quantum yield) ([2]; BDCAC library, Table 3): 1.4%
Compound: CCCCCCc1cn(-c2ccc3n2[B-](F)(F)[N+]2=C(N4CCCCC4)C=CC2=C3c2ccc(NC(C)=O)cc2)nn1 [BDCAC-47]

- λmax Absorp. ([1]; BDCCA library, Table 4): 464 nm
- λmax Emission ([1]; BDCCA library, Table 4): 548 nm
- φ (quantum yield) ([2]; BDCCA library, Table 4): 1.7%
Compound: CCCCCc1ccc(-c2cn(-c3ccc4n3[B-](F)(F)[N+]3=C(N5CCCCC5)C=CC3=C4c3ccc(NC(=O)CCl)cc3)nn2)cc1 [BDCCA-29]

- λmax Absorp. ([1]; BDC library, Table 2): 471 nm
- λmax Emission ([1]; BDC library, Table 2): 586 nm
- φ (quantum yield) ([2]; BDC library, Table 2): 0.23%
Compound: CCCCCc1ccc(-c2cn(-c3ccc4n3[B-](F)(F)[N+]3=C(N5CCCCC5)C=CC3=C4c3ccc(N)cc3)nn2)cc1 [BDC-29]

- λmax Absorp. ([1]; BDCAC library, Table 3): 467 nm
- λmax Emission ([1]; BDCAC library, Table 3): 576 nm
- φ (quantum yield) ([2]; BDCAC library, Table 3): 1.6%
Compound: CCCc1cn(-c2ccc3n2[B-](F)(F)[N+]2=C(N4CCCCC4)C=CC2=C3c2ccc(NC(C)=O)cc2)nn1 [BDCAC-48]

- λmax Absorp. ([1]; BDCCA library, Table 4): 467 nm
- λmax Emission ([1]; BDCCA library, Table 4): 555 nm
- φ (quantum yield) ([2]; BDCCA library, Table 4): 2.3%
Compound: O=C(CCl)Nc1ccc(C2=C3C=CC(N4CCCCC4)=[N+]3[B-](F)(F)n3c2ccc3-n2cc(C3CCCCC3)nn2)cc1 [BDCCA-6]

- λmax Absorp. ([1]; BDCAC library, Table 3): 469 nm
- λmax Emission ([1]; BDCAC library, Table 3): 592 nm
- φ (quantum yield) ([2]; BDCAC library, Table 3): 0.8%
Compound: CC(=O)Nc1ccc(C2=C3C=CC(N4CCCCC4)=[N+]3[B-](F)(F)n3c2ccc3-n2cc(C3(O)CCCC3)nn2)cc1 [BDCAC-67]

The remaining lines, values behind:

Compound: CC(=O)Nc1ccc(C2=C3C=CC(N4CC(C)OC(C)C4)=[N+]3[B-](F)(F)n3c2ccc3-n2cc(CC(C)C)nn2)cc1 (stereo not drawn) [MKAC20-43]
- λmax Abs. (nm) [1]: 467 nm
- λmax Em. (nm) [1]: 586 nm
- φ (%) ([2]; MKAC compound library): 1.55%

Compound: Nc1ccc(C2=C3C=CC(N4CCCCC4)=[N+]3[B-](F)(F)n3c2ccc3-n2cc(CO)nn2)cc1 [BDC-70]
- λmax Absorp. ([1]; BDC library, Table 2): 474 nm
- λmax Emission ([1]; BDC library, Table 2): 586 nm
- φ (quantum yield) ([2]; BDC library, Table 2): 0.13%

Compound: COc1ccc(OC)c(CNC2=[N+]3C(=C(c4ccc(N)cc4)c4ccc(-n5cc(C6CCCC6)nn5)n4[B-]3(F)F)C=C2)c1 [MK181-5]
- λmax Absorp. ([1]; MK library, Table 5): 475 nm
- λmax Emission ([1]; MK library, Table 5): 563 nm
- φ (quantum yield) ([2]; MK library, Table 5): 0.43%

Compound: CCCC(C)c1cn(-c2ccc3n2[B-](F)(F)[N+]2=C(N(C)Cc4ccccc4)C=CC2=C3c2ccc(NC(C)=O)cc2)nn1 (racemic) [MKAC195-3]
- λmax Abs. (nm) [1]: 465 nm
- λmax Em. (nm) [1]: 574 nm
- φ (%) ([2]; MKAC compound library): 6.53%

Compound: CCCC(C)c1cn(-c2ccc3n2[B-](F)(F)[N+]2=C(NCc4cc(F)cc(F)c4)C=CC2=C3c2ccc(NC(=O)CCl)cc2)nn1 (stereo not drawn) [MKCA412-3]
- λmax Absorp. (nm) [1]: 467 nm
- λmax Emission (nm) [1]: 563 nm
- φ (%) ([2]; MKCA compound library): 41.81%

Compound: CC1CN(C2=[N+]3C(=C(c4ccc(N)cc4)c4ccc(-n5cc(CC6CCCCC6)nn5)n4[B-]3(F)F)C=C2)CC(C)O1 (stereo not drawn) [MK20-8]
- λmax Absorp. ([1]; MK library, Table 5): 476 nm
- λmax Emission ([1]; MK library, Table 5): 563 nm
- φ (quantum yield) ([2]; MK library, Table 5): 0.32%

Compound: CC(C)Cc1cn(-c2ccc3n2[B-](F)(F)[N+]2=C(N4CC(C)OC(C)C4)C=CC2=C3c2ccc(NC(=O)CCl)cc2)nn1 (stereo not drawn) [MKCA20-43]
- λmax Absorp. (nm) [1]: 468 nm
- λmax Emission (nm) [1]: 585 nm
- φ (%) ([2]; MKCA compound library): 2.19%

Compound: CN(Cc1ccccc1)Cc1cn(-c2ccc3n2[B-](F)(F)[N+]2=C(N(C)Cc4ccccc4)C=CC2=C3c2ccc(N)cc2)nn1 [MK195-18]
- λmax Absorp. ([1]; MK library, Table 5): 475 nm
- λmax Emission ([1]; MK library, Table 5): 580 nm
- φ (quantum yield) ([2]; MK library, Table 5): 0.52%
